In patent US10682371B2, “Small molecule conjugates specifically activated in tumor microenvironment for targeting and use thereof” (priority 2014, dated 2020):
Where two headings read alike, the source gives them in different places.

Assays:
Human heart = assay type: biochemical; settings: Human heart, 1 mg/ml
[1] = tested on: Human fibrosarcoma HT-1080 tumor tissue homogenate; assay type: biochemical; settings: Human fibrosarcoma HT-1080
Procedure, shortened: (§1)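 Compounds at 1 mg/ml were added to 100 μg of acidized tumor tissue homogenate (pH6.0) at 37° C. Proteases in the homogenate act on the compounds, and activation efficiency in each tissue was assessed.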

tumor tissue homogenates = assay type: biochemical
Procedure, shortened: as §1

[2] = Solubility / formulation test in solvent 1 and solvent 2; assay type: physicochemical; settings: for Concentration achieved, completely dissolved in both solvent 1 and solvent 2: solvent 1 injectable water
Method: In Table 11, AAN, AANL and AANK indicate the linkage formed by small peptides in the compounds, A is Ala, N is Asn, L is Leu and K is Lys. […] The dissolution concentration is 10 mg/ml.
B1, B2, B3 and B4 and various control compounds were dried under vacuum, sterilized via gas sterilization, and separately packing in a sterile room. Before animal test, B1, B2, B3 and B4 were dissolved by solvent 1 (injectable water) or solvent 2 (30% alcohol, 70% injectable water) and diluted by injectable water to the desired concentration in sterile room. […] Change in solubility may greatly affect the formulation scheme of a drug.
D1, D2, D3, D4 and various control compounds were dried under vacuum, sterilized via gas sterilization, and separately packing in a sterile room. […] Change in solubility may greatly affect the formulation scheme of a drug.

[3] = tested on: Human prostate cancer PC-3 cells / Panc-1 cells; assay: Tumor treatment in nude mice (PC-3 cells purchased, Panc-1 cells injected; Examples 22, 32, 42); assay type: in vivo; settings: for Inhibition on tumor growth, in words: compared with parent drug group (same molar concentration) and control group
Procedure, shortened: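 Nude mice bearing subcutaneous Panc-1 xenografts (5×10^6 cells on the back) were randomized once tumors reached at least 100 mm^3. Drugs were given intravenously once weekly for four weeks, with saline controls. PC-3 cells were grown in DMEM/10% FBS and used within passage 15.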

4T1 cells = assay: BALB/C mice model for tumor metastasis (4T1, lung metastases); assay type: in vivo; settings: for Inhibitory effect on tumor metastasis, in words: compared with parent drug group and control group
Procedure, shortened: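 10^6 4T1 cells (DMEM, 10% FBS, within passage 15) injected subcutaneously into the back of BALB/C mice; primary tumor resected at about 1.5 cm, then dosing began. Drugs given IV once every three days, 4 times; saline controls. Lungs removed day 27, Bouin's-stained, metastases counted under anatomical microscope.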

BALB/C mice = assay: Maximum tolerated dose (MTD) / acute toxicity by single intravenous injection; settings: for Behaviors and death observed: BALB/C mice receiving 90 mg/kg injection
HT1080 cells = assay: Tumor treatment in nude mice, HT1080 model (Example 61); assay type: in vivo; settings: HT1080 in nude mice, IV once weekly for four weeks, E1-E4 15 mg/kg, mitomycin 2 mg/kg
Method: 1) HT1080 cells were purchased from American type culture collection (ATCC) and identified according the specification provided by ATCC. Cells were cultivated in DMEM culture solution containing 10% fetal bovine serum at 37° C. and 5% CO2. The cells were passaged for every three days and cells within the 15th passage were used.
2) Production of tumor. 5×10^6 HT1080 cells were subcutaneously injected to the back of the nude mice. Mice were randomly grouped after the tumor reached at least 100 mm^3. Then treatment began and the day on which the treatment began was day 1.
[…]. The control group was administered by physiological saline. Drugs were administered once weekly for four weeks.

macrophage = assay: Macrophage precursor antigen (F4/80) positive cells in CD45 positive cells of scar/CNV tissue, flow cytometry; assay type: in vivo, C57 mice; settings: 50 mW laser, 48 hours after treatment
Method: Production and treatment of scar. […] Two weeks later, eye tissues were taken from 4 animals of each group for immunohistochemical (HE) staining. For another 4 animals, they were subjected to fixed irradiation through photocoagulation by 50 mW laser and then to treatment. 48 hours later, their eye tissues were taken, homogenated, filtered to isolate individual cells in the scar and choroidal neovascularization (CNV) tissues. The cells were washed by buffer twice and stained by biotin-conjugated anti-F4/80 (biotin-labeled precursor cell antigen from macrophage) and FITC-conjugated anti-CD45 (isothiocyanate fluorescein labeled leucocyte common antigen) at ambient temperature for 1 hour. Then the cells were washed by PBS containing 1% fetal bovine serum twice and then analyzed for the ratio of the macrophage precursor antigen positive cells in the leucocyte common antigen (CD45) positive cells by flow cytometry.

[4] = Table 26, nude mice, IV once weekly for four weeks, A1-A4 24 mg/kg, Paclitaxel 8 mg/kg
[5] = Table 28, BALB/C mice, 4T1, lung metastases day 27, IV every three days for 4 times, A1-A4 12 mg/kg, Paclitaxel 4 mg/kg
[6] = single intravenous injection, 125 mg/kg, 10 BALB/C mice per group
[7] = single intravenous injection, 150 mg/kg, 10 BALB/C mice per group
[8] = single intravenous injection, 175 mg/kg, 10 BALB/C mice per group
[9] = single intravenous injection, 200 mg/kg, 10 BALB/C mice per group
[10] = nude mice, IV once weekly for four weeks, S1′-S4′ 24 mg/kg, Paclitaxel 8 mg/kg, Day 10
[11] = nude mice, IV once weekly for four weeks, S1′-S4′ 24 mg/kg, Paclitaxel 8 mg/kg
[12] = 4T1, BALB/C mice, lung, day 27, IV every three days for 4 times, S1′-S4′ 12 mg/kg, Paclitaxel 4 mg/kg

COCCOCCOCCOCCOCCOCCOCCOCCOCCOCCOCCOCC(=O)NCCCC[C@H](NC(=O)COCCOCCOCCOCCOCCOCCOCCOCCOCCOCCOCCOC)C(=O)N[C@H](C)C(=O)N[C@H](C)C(=O)N[C@H](CC(N)=O)C(=O)Nc1ccc(COC(=O)OC(C(=O)OC2C[C@@]3(O)[C@@H](OC(=O)c4ccccc4)[C@H]4[C@](C)(C(=O)[C@H](OC(C)=O)C(=C2C)C3(C)C)[C@@H](O)CC2OC[C@]24OC(C)=O)[C@@H](NC(=O)c2ccccc2)c2ccccc2)cc1 (stereo partly shown) [Compound A3]
Activation ratio (%) in homogenates from different tumor tissues (Human heart; acidized homogenate pH6.0, Paclitaxel release by HPLC): none
Activation ratio (%) in homogenates from different tumor tissues ([1]; 1 mg/ml, 100 μg acidized homogenate pH6.0, Paclitaxel release by HPLC): 70.3%
Activation efficiency by tumor tissue, in words (tumor tissue homogenates): highest activation efficiency among the screened compounds
solubility in Solvent 1 ([2]; solvent 1 (injectable water), Table 22, Paclitaxel series): soluble
Concentration achieved, completely dissolved in both solvent 1 and solvent 2 ([2]; solvent 2 45% alcohol, 55% injectable water): 10000 µg/mL
solubility in Solvent 2 ([2]; solvent 2 (45% alcohol, 55% injectable water), Table 22, Paclitaxel series): soluble
Solubility in water, in words ([2]; water): can directly dissolve in water
inhibitory rate on tumor Day 10 ([3]; Table 26, nude mice, IV once weekly for four weeks, A1-A4 24 mg/kg, Paclitaxel 8 mg/kg, Day 10): 71.9%
Size of tumor (mm^3) Day 24 [3, 4]: 81.83 ± 89.2 mm^3
inhibitory rate on tumor Day 24 [3, 4]: 78.5%
Inhibition on tumor growth, in words [3]: greatly improved
Inhibitory rate on metastasis (4T1 cells; [5]): 89.1%
Number of metastasized tumor (4T1 cells; [5]): 16 ± 9
Inhibitory effect on tumor metastasis, in words (4T1 cells): greatly improved
Behaviors and death observed (BALB/C mice): no pilo-erection, hair tousle and lackluster, lethargy, stoop, irritable reaction and death
Mortality rate (%) (BALB/C mice; [6]): 10%
Number of dead animal (BALB/C mice; [6]): 1
Mortality rate (%) (BALB/C mice; [7]): 0%
Number of dead animal (BALB/C mice; [7]): 0
Mortality rate (%) (BALB/C mice; [8]): 0%
Number of dead animal (BALB/C mice; [8]): 0
Mortality rate (%) (BALB/C mice; [9]): 0%
Number of dead animal (BALB/C mice; [9]): 0

COCCOCCOCCOCCOCCOCCOCCOCCOCCOCCOCCOCC(=O)N[C@H](C)C(=O)N[C@H](C)C(=O)N[C@H](CC(N)=O)C(=O)Nc1ccc(COC(=O)OC(C(=O)OC2C[C@@]3(O)[C@@H](OC(=O)c4ccccc4)[C@H]4[C@](C)(C(=O)[C@H](OC(C)=O)C(=C2C)C3(C)C)[C@@H](O)CC2OC[C@]24OC(C)=O)[C@@H](NC(=O)c2ccccc2)c2ccccc2)cc1 (stereo partly shown) [S3′]
Activation ratio (%) in homogenates from different tumor tissues (Human heart; 37°): none
Activation ratio (%) in homogenates from different tumor tissues ([1]; 100 μg acidized homogenate pH6.0, 1 mg/ml, 37°): 67.9%
Activation efficiency by tumor tissue, in words (tumor tissue homogenates): highest activation efficiency among the screened compounds
solubility in Solvent 1 ([2]; Solvent 1 injectable water, dissolution concentration 10 mg/ml): soluble
solubility in Solvent 2 ([2]; Solvent 2: 50% injectable water, 45%-49% propanediol, 1%-5% Tween80, dissolution concentration 10 mg/ml): soluble
Concentration achieved, completely dissolved in both solvent 1 and solvent 2 ([2]; solvent 2 50% injectable water, 42%-49% propanediol, 1%-8% Tween80): 10000 µg/mL
Inhibition on tumor growth, in words [3]: greatly improved
Size of tumor (mm^3) Day 10 [3, 10]: 75.60 ± 28.54 mm^3
inhibitory rate on tumor Day 10 [3, 10]: 49.4%
Size of tumor (mm^3) Day 24 [3, 11]: 74.39 ± 48.94 mm^3
inhibitory rate on tumor Day 24 [3, 11]: 70.2%
Inhibitory rate on metastasis (4T1 cells; [12]): 90.44%
Number of metastasized tumor (4T1 cells; [12]): 13 ± 8
Inhibitory effect on tumor metastasis, in words (4T1 cells): greatly improved
Behaviors and death observed (BALB/C mice): no pilo-erection, hair tousle and lackluster, lethargy, stoop, irritable reaction and death
Mortality rate (%) (BALB/C mice; BALB/C mice, single iv, 125 mg/kg): 0%
Number of dead animal (BALB/C mice; BALB/C mice, single iv, 125 mg/kg, 10 animals): 0
Mortality rate (%) (BALB/C mice; BALB/C mice, single iv, 150 mg/kg): 0%
Number of dead animal (BALB/C mice; BALB/C mice, single iv, 150 mg/kg, 10 animals): 0
Mortality rate (%) (BALB/C mice; BALB/C mice, single iv, 175 mg/kg): 0%
Number of dead animal (BALB/C mice; BALB/C mice, single iv, 175 mg/kg, 10 animals): 0
Mortality rate (%) (BALB/C mice; BALB/C mice, single iv, 200 mg/kg): 10%
Number of dead animal (BALB/C mice; BALB/C mice, single iv, 200 mg/kg, 10 animals): 1

CO[C@@]12[C@H](COC(N)=O)C3=C(C(=O)C(C)=C(N)C3=O)N1C[C@@H]1N[C@@H]12 [mitomycin, reference compound]
Inhibitory rate on metastasis (4T1 cells; day 27, IV once every three days for 4 times, E1-E4 15 mg/kg, mitomycin 1 mg/kg): 5.9%
Number of metastasized tumor (4T1 cells; lung metastases counted on day 27, IV once every three days for 4 times, E1-E4 15 mg/kg, mitomycin 1 mg/kg): 128 ± 25
Size of tumor (mm^3) Day 13 (HT1080 cells; Day 13): 876.48 ± 78.29 mm^3
inhibitory rate on tumor Day 13 (HT1080 cells; Day 13): 3.7%
Size of tumor (mm^3) Day 26 (HT1080 cells; Day 26): 1410.28 ± 375.46 mm^3
inhibitory rate on tumor (Day 26) (HT1080 cells; Day 26): 10.4%
F4/80+ cells among CD45+ cells (%) (macrophage): 14.6 ± 2.4%
Mortality rate (%) (BALB/C mice; 6 mg/kg single IV injection, 10 BALB/C mice): 0%
Number of dead animal (BALB/C mice; 6 mg/kg single IV injection, 10 BALB/C mice, observed 17 days): 0
Mortality rate (%) (BALB/C mice; 7 mg/kg single IV injection, 10 BALB/C mice): 10%
Number of dead animal (BALB/C mice; 7 mg/kg single IV injection, 10 BALB/C mice, observed 17 days): 1
Mortality rate (%) (BALB/C mice; 8 mg/kg single IV injection, 10 BALB/C mice): 40%
Number of dead animal (BALB/C mice; 8 mg/kg single IV injection, 10 BALB/C mice, observed 17 days): 4
Mortality rate (%) (BALB/C mice; 9 mg/kg single IV injection, 10 BALB/C mice): 90%
Number of dead animal (BALB/C mice; 9 mg/kg single IV injection, 10 BALB/C mice, observed 17 days): 9
